Here are results for two molecules from US9241924B2, “Compositions of 5-ethyl-2-{4-[4-(4-tetrazol-1-yl-phenoxymethyl)-thiazol-2-yl]-piperidin-1-yl}-pyrimidine” (CYMABAY THERAPEUTICS, INC., priority 2010, dated 2016).

A short description of data set [1]: Non-sink dissolution of melt extruded formulations in simulated gastric fluid. It is filed as physicochemical. On the procedure:
(§1) Solid dispersion formulations of Compound A in Eudragit® E PO (Formulation 2) and Kollidon® VA 64 (Formulation 3) were examined for dissolution behavior under non-sink conditions to assess oral bioavailability enhancement. Studies were conducted in three different media preparations, including: simulated gastric fluid, fed state simulated intestinal fluid and fasted state simulated intestinal fluid, which are presented in Table 2, Table 3 and Table 4 and FIG. 1, FIG. 2 and FIG. 3.

The nature of data set [2]: Non-sink dissolution of melt extruded compositions in simulated fed state intestinal fluid. In kind it is physicochemical. The procedure:
as §1

Data set [3] is described as follows: Non-sink dissolution of melt extruded compositions in simulated fasted state intestinal fluid. It is filed as physicochemical. The procedure:
as §1

Data set [4] can be described thus: In vitro dissolution test in NaTC/POPC in PBS (pH 6.5). It is filed as physicochemical. Particulars: theoretical Cmax 200 μg/mL. On the procedure:
(§2) Samples were weighed, dissolved in the buffer system, centrifuged, and the supernatant analyzed by HPLC at 10, 20, 40, and 90 minutes.
(§3) Tables 7a and 7b and FIG. 6 compares in vitro dissolution performance of Compound A:CAP SDD with that of crystalline of Compound A, HPMCAS-MG, and HPMCAS-HG.

The nature of data set [5]: In vitro dissolution of HPMCAS dispersions (Table 7b, simulated gastric fluid). The following applies: dose 200 μg/mL, initial ninety minutes. It is filed as physicochemical. On the procedure:
as §2, §3

A short description of data set [6]: In vivo systemic exposure in male beagle dogs, oral dosing. Particulars: dog; for AUC(0-t): read-out: AUC0-24 hr. The procedure: In vivo testing was performed in male dogs to compare the systemic exposure of the 25% Compound A:CAP SDD (n=2) to that of the crystalline Compound A (n=2).
A short description of data set [7]: Phase 1 multiple ascending dose study, pharmacokinetics. The following applies: human, blood, po, repeat (5) daily doses, mean (±SD); for AUC(0-t): read-out: AUC0-24 h. In kind it is in vivo. From the text: (§4) This is a single center, phase 1, double-blind, placebo-controlled, multiple ascending dose study of Compound A given orally as a reformulated tablet (spray dried dispersion, or SDD) to otherwise healthy subjects with “pre-diabetes” (impaired fasting glucose, impaired glucose tolerance, or HbA1C≧5.8), or diet-controlled type 2 diabetes mellitus. The study was designed to evaluate the safety, tolerability, pharmacokinetics (PK), and proof-of-concept pharmacodynamics of Compound A. Each dosing cohort consisted of a screening period to assess eligibility, a dosing and observational period, and a follow-up period.
The screening visit was used to assess preliminary eligibility in potential subjects who provided informed consent. Final eligibility for study enrollment was determined after check-in to the clinic on Day −3, before randomization and dosing (on Day 1). Eleven eligible subjects who successfully completed screening were enrolled into the lowest dose cohort that was yet to be filled, and randomly assigned in a double-blind fashion to receive Compound A (n=8) or matched placebo (n=3). Up to 4 additional subjects were admitted to the clinic and available as back-ups in the event that 1 of the original 11 subjects was not dosed for any reason.
Each of these study cohorts was enrolled and completed independently, and in sequential fashion. After completion of the inpatient observational period at Day 8, blinded clinical safety and laboratory parameters (including PK) were assessed in a teleconference between the Principal Investigator, or Sub-Investigator, and the Metabolex Medical Monitor, after which subject dosing assignments could have been unblinded, if necessary, for determination of dose-limiting toxicities (DLTs). If two dose-limiting toxicities (DLTs) occurred within the same treatment cohort in subjects receiving active drug, no further dose escalation would have been allowed, and the maximum tolerated dose (MTD) would have been defined by the dose in the previous cohort. Additionally, dosing may have been halted at the discretion of the sponsor depending on observed Compound A concentrations and PK parameters from the preceding cohort in context of the safety and pharmacodynamic profile of the preceding cohorts.
On Day −2, following a 10 hour overnight fast, up to 15 eligible subjects underwent a baseline MMTT administered between 9:30 and 10:15 am, for the assessment of glucose and insulin response and of total GLP-1 and glucagon. On Day −1, following a 10 hour overnight fast, up to 15 eligible subjects also underwent a baseline OGTT (75 g) administered at the identical time of day as the MMTT, for assessment of the same markers. After the baseline OGTT assessments, 11 subjects were enrolled and randomized into the current dosing cohort. Up to 4 additional subjects remained overnight to be available as back-ups in the event that 1 of the original 11 subjects was, for any reason, not dosed. If more than 11 eligible subjects meet the cohort requirements, the excess subjects may have been included in the next cohort check-in, if within the 35 day screening window and they continued to meet eligibility. On Days 1 through 5, following a 10 hour overnight fast, subjects received daily doses of Compound A or placebo exactly 2 hours earlier than the start of the baseline MMTT, under fasted conditions. The inpatient period in clinic began on Day −2 and concluded on Day 8, following the final inpatient study procedure. The following assessments were made in temporal relationship to the administration of the study drug, administered at Day 1, Time 0, unless otherwise stated: • Pharmacokinetic Blood and Urine Sampling: • Subjects randomized to Compound A or placebo underwent single dose (Day 1) and repeat dose (Day 4) PK. Compound A was measured pre-dose (t −30 and 0 min) on Day 1 and at 20 and 40 minutes, and 1, 2, 3, 4, 6, 8, 12, and 24 hours post-dose. […]

Data set [8] deals with subjects with pre-diabetes. Description: Phase 1c study C, pharmacodynamics (MMTT/OGTT glucose excursion, fasting glucose). It is filed as in vivo, human.
Text: as §4
On Day −2, following a 10 hour overnight fast, up to 15 eligible subjects underwent a baseline MMTT administered between 9:30 and 10:15 am, for the assessment of glucose and insulin response and of total GLP-1 and glucagon. On Day −1, following a 10 hour overnight fast, up to 15 eligible subjects also underwent a baseline OGTT (75 g) administered at the identical time of day as the MMTT, for assessment of the same markers. […] Compound A was measured pre-dose (t −30 and 0 min) on Day 1 and at 20 and 40 minutes, and 1, 2, 3, 4, 6, 8, 12, and 24 hours post-dose. Compound A was measured at identical timepoints associated with the Day 4 dose, but included additional measurements at 48 and 72 hours post-dose (Day 7). […]

The mark [9] stands for this setting: SDD tablet 25 mg orally once daily.
Setting [10] is: SDD tablet 100 mg orally once daily.
[11] abbreviates: SDD tablets 300 mg orally once daily.
Setting [12] is: SDD tablets 600 mg orally once daily.

In data set [1], `CCc1cnc(N2CCC(c3nc(COc4ccc(-n5cnnn5)cc4)cs3)CC2)nc1` [Compound A Crystalline, 5-ethyl-2-{4-[4-(4-tetrazol-1-yl-phenoxymethyl)-thiazol-2-yl]-piperidin-1-yl}-pyrimidine] registered an AUC0-2 hr of 321 µg·h/mL, an AUC0-4 hr of 727 µg·h/mL, an AUC0-24 hr of 4494 µg·h/mL and a Cmax of 247000 ng/mL. In addition, the Tmax in data set [1] is 2 h. In data set [2], this molecule gave an AUC0-2 hr of 100.045 µg·h/mL, an AUC0-4 hr of 211.597 µg·h/mL, an AUC0-24 hr of 1148.003 µg·h/mL and a Cmax of 60182 ng/mL. Further, in data set [2], the Tmax was 2 h. For the same molecule, in data set [3], the AUC0-2 hr was 51.205 µg·h/mL, the AUC0-4 hr was 103.281 µg·h/mL, the AUC0-24 hr is 434.380 µg·h/mL and the Cmax was 29891 ng/mL. In data set [3], the Tmax was 0.50 h. In addition, the AUC0-90 in data set [4] (NaTC/POPC in PBS pH 6.5, through 90 minutes) was 950 µg·min/mL. Moreover, the “Cmax (μg/mL Compound A)” value in data set [4] (NaTC/POPC in PBS pH 6.5, up to 90 min) was 12 µg/mL. In data set [5], this molecule showed an AUC90 of 1000 µg·min/mL and a Cmax90 of 8000 ng/mL. Besides, in data set [6] (10 mg/kg orally), the Cmax came out at 560 ng/mL and the AUC(0-t) stood at 3.9 µg·h/mL. In data set [6] (200 mg/kg orally), the Cmax is 2000 ng/mL and the AUC(0-t) was determined as 17 µg·h/mL.

`CCc1cnc(N2CCC(c3nc(COc4ccc(-n5cnnn5)cc4)cs3)CC2)nc1` [Compound A, 5-ethyl-2-{4-[4-(4-tetrazol-1-yl-phenoxymethyl)-thiazol-2-yl]-piperidin-1-yl}-pyrimidine]: in data set [7] (setting [9]), the AUC(0-inf) was 6.5 µg·h/mL, the Tmax is 5.4 h, the half-life was 14 h and the AUC(0-t) came out at 4.15 µg·h/mL. In data set [7] (SDD tablet 25 mg orally once daily, subjects with pre-diabetes), this molecule registered a Cmax of 346 ng/mL. Also, in data set [7] (setting [10]), the AUC(0-inf) amounted to 24.6 µg·h/mL, the highest level (Cmax) was 1150 ng/mL, the Tmax came out at 2.8 h and the half-life was 18.3 h. For the same molecule, the AUC(0-t) in data set [7] (setting [10]) was 13.3 µg·h/mL. In data set [7] (setting [11]), the AUC(0-inf) was found to be 45 µg·h/mL, the concentration peaked (Cmax) at 2330 ng/mL, the Tmax was 2.2 h and the half-life was 15.3 h. Also, in data set [7] (setting [11]), the AUC(0-t) came out at 30 µg·h/mL. In addition, in data set [7] (setting [12]), the Cmax came to 3560 ng/mL, the Tmax is 3.3 h and the AUC(0-t) is 57.9 µg·h/mL. Besides, the “fasting plasma glucose (FPG) and glucose excursion following MMTT and OGTT” value in data set [8] (studies conducted to date) is reported as “consistently lowered”. Besides, the “reduction in glucose, net of placebo” value in data set [8] (subsets of subjects with the greatest degree of glucose intolerance at baseline, pooled, any dose, Phase 1c (study C)) is “up to 77%”.
